In general, IC50 refers to the point on the concentration scale where inhibition reaches its midpoint.

The text below walks through data of patent US20260234188A1, “CHEMOKINE-BINDING PEPTIDES” (Oxford University Innovation Limited, priority 2022, published 2026).

For assay [1], the system named is panel of up to 42 human chemokines. The assay is described as follows: Phage-display next generation sequencing screen of overlapping hexadecapeptide libraries, chemokines displayed on streptavidin beads.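 Also: chemokine listed when log2 fold enrichment exceeds 5.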 The class given is binding. The conditions noted are these: log2E greater than 5, chemokines named by first part of UniProt Entry Name, peptides binding complement C5a (control) excluded. In short, it runs like this: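 Phage-display libraries of 55662 overlapping hexadecapeptides from tick and viral chemokine-binding proteins, human chemokines and chemokine receptors screened against up to 42 human chemokines, with hits found by next-generation sequencing. Peptides mapped to parent-protein position with log2 fold enrichment; regions of interest where cumulative residue log2 E exceeds the 95% upper CI of the protein median.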

A further assay deals with T1, CCL8 (Homo sapiens, UniProt P80075).
T1 construct: purchased Peprotech
T1 sequence (P80075 24-99): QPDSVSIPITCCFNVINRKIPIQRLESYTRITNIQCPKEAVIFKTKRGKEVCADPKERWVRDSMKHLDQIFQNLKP
The assay is described as follows: cell-based. The conditions noted are these: for inhibition of cell migration: peptide 10 μM, chemokine at EC80, versus scrambled control HD2SCR. As to the method:
FIG. 2. […] BK1.2 is described in (Darlot, 2020). […] Chemokines used are indicated by the name, followed in parenthesis by the supplier code (P in supplier code indicates Peprotech). […] All experiments were performed at EC80 doses of indicated chemokine. Data are shown as box-whisker plots of three technical and three biological replicates. Statistically significant differences (compared to control, indicated by #), using Dunnett's test with correction for multiple comparisons, are indicated by asterisks: ****=P≤0.0001, ***=P≤0.001, **=P≤0.01, *=P≤0.05.
FIG. 3. […] Chemokines used are indicated by the name, followed in parenthesis by the supplier code (P in supplier code indicates Peprotech). […] All experiments were performed at EC80 doses of indicated chemokine.
(§1) Briefly, cell migration assays use THP1 cells (human monocyte) and primary human buffy coat white cells (consisting of neutrophil granulocytes, monocytes, and lymphocytes), and activated T-cells. THP1 cells and primary monocytes respond to CCL2, CCL3, CCL5, CCL8 and CXCL4, granulocytes to CXCL1 and CXCL8, activated T-cells to CXCL9/10/11. Assays are performed in 96-well Boyden chambers, and migrated cells counted and characterized using and ATTUNE Flow Cytometer as described. Triplicate assays are performed at the EC80 dose of each chemokine at 10 μM peptide concentration.
The J:CXCR1 cell line was generated by transfecting Jurkat cells by electroporation with PvuI-linearized plasmid D1398 and selecting with blasticidin (Sigma-Aldrich, Cat #203350, […]). […] J:CXCR1 cells were cultured in RPMI-1640 media (Gibco), supplemented with 10% FBS and 5 mM L-Glutamine with blasticidin. For J:CXCR1 migration assays, 300,000 cells/well were added to the top chamber of a 3 μm Transwell insert (Corning) in 50 μL of migration media (RPMI-1640, 0.5% FBS, 4 mM L-Glutamine, 0.05% DMSO). The bottom chamber contained 150 μL of chemokine, with or without peptide. Cells were migrated at 37° C. in 5% CO2 for 4 hours. […]

The subject of another assay is CC and CXC chemokines. The assay is described as follows: Chemokine-induced cell migration assays, pooled over chemokines (meta-analysis). The class given is cell-based, human. The conditions noted are these: single HD2 mutations; nine CC and six CXC chemokines. As to the method:
FIG. 16. Effect of HD2 alanine mutations on chemotaxis. […] All experiments were performed as three technical and three biological replicates, and individual data points are indicated, and coloured by the chemokine used. Statistically significant differences (compared to control, coloured blue), using Dunnett's test with correction for multiple comparisons, are indicated by asterisks: ****=P≤0.0001, ***=P≤0.001, **=P≤0.01, *=P≤[…] observations per group (three technical and three biological replicates for each chemokine). FIG. 16B, Faceted plots of change in median normalised cell count between alanine mutant and wild-type HD2 peptide obtained in cell migration assays (Y-axis, Δmedian normalised cell count) versus alanine mutated residue (X-axis). Chemokines used for each experiment are indicated in the strip to the right of each plot. Statistically significant differences compared to parental HD2 are shown as red dots. […] Scatterplot of Δmedian normalised cell count (Y-axis, obtained in cell migration assays) versus Δlog 2 E (obtained in phage-display experiments) for peptide:chemokine pairs. Individual data points indicate peptide chemokine pairs for which both cell migration and Δlog 2 E were available. Linear regression plot with 95% confidence interval, Spearman correlation coefficient (R) and statistical significance (p) are shown.
FIG. 19. […] All experiments were performed as at least three technical and three biological replicates, and individual data points are indicated, and coloured by the chemokine used, for all chemokines studied (n=16 chemokines). Statistically significant differences (compared to control, coloured blue), using Dunnett's test with correction for multiple comparisons, are indicated by asterisks: ****=P≤0.0001, ***=P≤0.001, **=P≤0.01, *=P≤0.05.
as §1
The J:CXCR1 cell line was generated by transfecting Jurkat cells by electroporation with PvuI-linearized plasmid D1398 and selecting with blasticidin (Sigma-Aldrich, Cat #203350, […]). […] J:CXCR1 cells were cultured in RPMI-1640 media (Gibco), supplemented with 10% FBS and 5 mM L-Glutamine with blasticidin. For J:CXCR1 migration assays, 300,000 cells/well were added to the top chamber of a 3 μm Transwell insert (Corning) in 50 μL of migration media (RPMI-1640, 0.5% FBS, 4 mM L-Glutamine, 0.05% DMSO). The bottom chamber contained 150 μL of chemokine, with or without peptide. Cells were migrated at 37° C. in 5% CO2 for 4 hours. The plate was incubated on a shaking platform for 10 minutes, 800 rpm, at 37° C., and 150 μL from the bottom of the plate transferred into a U-bottom plate containing 50 μL of migration media.

The test system of assay [2] is panel of 24 biotinylated chemokines. The assay is described as follows: Phage-display screen of HD2 NNK saturation mutagenesis library. Format: binding, human. From the text: FIG. 7. Exemplar results from phage display screens using saturation mutagenesis. A phage-display library was constructed using the HD2 sequence, replacing each residue encoding codon with the degenerate sequence NNK. The 16 degenerate sequences (which also encoded the parental HD2 sequence) were pooled and cloned into display phage. […] Exemplar peptides were selected such that log 2 E for at least one chemokine was greater than 5, and log 2 E for binding to control (CO5, was less than zero). […] The fold enrichment of parental HD2 is also indicated.
A phage-display library was constructed using the HD2 sequence, replacing each residue encoding codon with the degenerate sequence NNK. The 16 degenerate sequences (which also encoded the parental HD2 sequence) were pooled and cloned into display phage. […] Exemplar peptides were selected such that log 2 E for at least one chemokine was greater than 5, and log 2 E for binding to control (CO5, was less than zero). […] The fold enrichment of parental HD2 is also indicated.
A molecular level understanding of binding mechanism is needed for development of peptides as therapeutics and is usually obtained from structural analyses. As HD2 binds many chemokines this becomes a challenging task, and we explored if we could elucidate this using phage display mutagenesis. The role of each residue in HD2 for binding was examined in phage-display. A library of HD2 mutations that had NNK substituted at each residue and performed phage-display selection against a panel of 24 biotinylated chemokines, in parallel, as described in Example 7. This strategy allowed us to evaluate the impact not only of Ala substitutions, but also conservative, hydrophilic and hydrophobic substitutions, and compare with binding of parental HD2 which is also included in the library. Ala substitution removes side-chains beyond the β-carbon and can be used to infer the role of side-chain functional groups without affecting conformational flexibility of the backbone. […] These residues are within the two motifs identified previously. Other notable residues identified were Y8 and P10. We next judged the impact of Ala mutation by calculating the change in log 2 E (Δlog 2 E) between the mutant and parental HD2. A positive value of Δlog 2 E indicates increased binding, and a negative value decreased binding compared to parental HD2. […] As may be seen, the log 2 E for the parental HD2 was ~0 in these analyses indicating lack of enrichment.
Oligonucleotide pools were amplified using primers: oligo_fwd: 5′-[…] and oligo_rev2: 5′-tcgtcaccctcggcgcctcctcoggatcctccacc. Oligonucleotide PCR products were cloned into plasmid prSTOP4Nsi using NEB Builder HiFi Assembly following instructions of the manufacturer. The vector pool was used to transform electrocompetent Invitrogen ElectroMAX™ DH5α-E™ cells. Plasmid DNA was harvested by MaxiPrep (GeneJet Plasmid Maxiprep Kit) and was transformed into SS320 phage display electrocompetent cells (Lucigen), following the manufacturer's protocol, resuspended in 950 μL recovery media for each electroporation, transferred to 50 mL Falcon tubes, 100 μL 1011 CFU/mL M13KO7 helper phage (NEB) added and shaken at 37° C., 220 RPM for 1 h. 1 mL recovery culture was added to 2YT medium containing +50 ug/mL carbenicillin and 25 ug/mL kanamycin, and grown overnight at 37C, 220 rpm. Phage was precipitated from the culture supernatant by adding 22.5 mL of supernatant to 4.5 mL 20% PEG 8000/2.5 M NaCl, incubating on ice for 30 min, and centrifuging at 10,000 RPM, 4° C. for 10 min, and resuspending phage in 1 ml of PBT, followed by centrifugation at 13000 RPM, 4° C., for 10 min. […]

Another assay concerns the target T2, CXCL6 (Homo sapiens, UniProt P80162).
T2 sequence (P80162 38-114): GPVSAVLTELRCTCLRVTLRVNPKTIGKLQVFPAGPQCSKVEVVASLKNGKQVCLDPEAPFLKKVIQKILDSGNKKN
Briefly: cell-based. To be noted: value in parentheses restating the molar figure. As to the method:
FIG. 11. […] Technical replicates are shown as individual data points. […] The response curve (solid blue line) and its 95% confidence interval (grey ribbon) were calculated using a 4-parameter log-logistic plot.
The J:CXCR1 cell line was generated by transfecting Jurkat cells by electroporation with PvuI-linearized plasmid D1398 and selecting with blasticidin (Sigma-Aldrich, Cat #203350, […]). […] J:CXCR1 cells were cultured in RPMI-1640 media (Gibco), supplemented with 10% FBS and 5 mM L-Glutamine with blasticidin. For J:CXCR1 migration assays, 300,000 cells/well were added to the top chamber of a 3 μm Transwell insert (Corning) in 50 μL of migration media (RPMI-1640, 0.5% FBS, 4 mM L-Glutamine, 0.05% DMSO). The bottom chamber contained 150 μL of chemokine, with or without peptide. Cells were migrated at 37° C. in 5% CO2 for 4 hours. The plate was incubated on a shaking platform for 10 minutes, 800 rpm, at 37° C., and 150 μL from the bottom of the plate transferred into a U-bottom plate containing 50 μL of migration media. Cell counts were determined by Attune NxT Flow Cytometer Plate Reader (ThermoFisher), based on cell size parameters FSC-H/SSC-H. Experiments were performed in 3 technical and 3 biological replicates. THP-1 migration assays were carried out using methods known in the art. Activated T-cell assays were carried out using methods known in the art, with the following modifications in the isolation process. Peripheral blood cells were obtained from leucocyte cones (NHS Blood Transfusion Services), following which, T-cells were isolated using two rounds of human CD8+ T-cell isolation kit (480011, BioLegend). At day 10 after activation, T-cells were frozen at 20 E6 cells/ml in TexMACS medium supplemented with 10% DMSO (D2650, Sigma) in liquid nitrogen. Prior to use, activated T-cells were recovered for 24 hours in TexMACs medium at 0.3 E6 cells/ml and incubated at 37° C. in 5% CO2. Chemokine sources are described in Supplementary information Table 3. Statistical significances between control experimental groups was evaluated using Dunnett's test. IC50 experiments were performed at the EC80 dose of chemokine. EC80 was calculated by fitting a chemokine dose-response curve with 3 parameters (fixing the top to 100%). IC50 was calculated by fitting an inhibitor response curve with 4 parameters.
Migration assays using THP1, activated T-cell (ATC) and J:CXCR1 (Jurkat cells stably transfected with CXCR1 receptor) were performed as described previously. IC50 experiments were performed at the EC80 dose of chemokine. EC80 was calculated by fitting a chemokine dose-response curve with 3 parameters (fixing the top to 100%). IC50 was calculated by fitting an inhibitor response curve with 4 parameters. R-packages used were ggupset_0.3.0, DescTools_0.99.44, and drc_3.0-1.

Setting [3] is: HD2 saturation mutants, chemokines on streptavidin beads, UniProt entry names.

“Also recorded” adds a separate entry of the source. Ends that are not written are not given here.

DEDYEDFFKPVTCYFA [HD540]: the “Chemokines Bound” value in assay [1] is given as “CCL18, CCL22,; also recorded: CCL5, CCL8”. The “inhibition of cell migration” value against CCL8 is “inhibition”.

For the substance EDEDYEDFFKPVTCYF [HD845], the “Chemokines Bound” value in assay [1] was “CCL18, CCL22,; also recorded: CCL5, CCL8”. Besides, the “inhibition of cell migration” value against CCL8 is reported as “inhibition”.

As for EEDDYDAYAPLTCYFT [HD2_D6], the “chemotaxis inhibition compared with HD2, meta-analysis” value with CC and CXC chemokines was “did not improve chemotaxis in any assay”. Besides, in assay [2] (setting [3]), the “Chemokines Bound log2E 1-5” value is listed as “CCL15, CCL17, CCL18, CCL19,; also recorded: CCL22, CCL28, CCL3, CCL4,; also recorded: CCL5, CCL8, X3CL1, CXL10,; also recorded: CXL11, CXL14, IL8” and the “Chemokines Bound log2E > 5” value was “CCL1, CCL11,; also recorded: CCL2, SDF1,; also recorded: CXL13”. Also, in assay [2] (over CC chemokines), the “mean log 2 E compared to parental HD2” value was “significant improvement”. The “mean log 2 E compared to parental HD2” value in assay [2] (over all chemokines) is recorded as “significant improvement”.

“EEDDYTAYAPLTCYFT-NH2 [HD2, EEDDYTAYAPLTCYFT]”: the IC50 at CXCL6 was 140 µM; at CCL8 (value in parentheses restating the molar figure), 0.015 µM.
